Converted amounts (≈) assume the structure as drawn.
details: buffer; pH 7.4; 200.0 µM

Row | Structure (SMILES) | solubility kinetic [µg/mL]
1 | O=C(CNC(=O)c1ccc(F)cc1)Nc1ccccc1C(F)(F)F | 16.2 (≈ 47.6 µM)
2 | Cc1ccc(C(=O)N2CCN(CCNC(=O)C(=O)Nc3ccc(Cl)cc3)CC2)cc1 | 2.6 (≈ 6.06 µM)
3 | CCCn1cnc2scc(-c3ccc(C)c(C)c3)c2c1=O | 1.1 (≈ 3.69 µM)
4 | O=C(NCCCNC(=O)c1cnccn1)c1ccc(Cl)c(Cl)c1 | 41.4 (≈ 117 µM)
5 | COc1ccccc1NC(=O)c1ccc[n+]([O-])c1 | > 36.6
6 | Nc1cccc2cnccc12 | 1.4 (≈ 9.71 µM)
7 | C/C(CC(C)C)=N\Oc1nc(C)cc(C)n1 | > 33.2
8 | CCc1cccc(C)c1NC(=O)c1ccc2c(c1)CCN2S(C)(=O)=O | 19.3 (≈ 53.8 µM)
9 | O=C(Nc1cc2c3c(c1)CC(=O)N3CCC2)c1ccc(F)cc1 | > 46.5
10 | CC1CCN(C(=O)CN2C(=O)C(=O)N(C)C2=O)c2ccccc2S1 (stereo not drawn) | > 52.1
11 | CCOc1ccccc1NC(=O)c1oc2ccccc2c1NC(=O)C1CCCO1 (stereo not drawn) | < 0.4
12 | COc1cc2c(cc1OC)CN(C(=O)c1sccc1C)CC2 | 45.8 (≈ 144 µM)
13 | CCC(NS(=O)(=O)c1cccs1)c1ccc(C)cc1 (stereo not drawn) | > 44.3
14 | CC(C)(C)n1cnc2cc(NC(=O)c3ccco3)ccc21 | 41.1 (≈ 145 µM)
15 | O=[N+]([O-])c1ccc(C(O)C[n+]2ccccc2)cc1.[I-] (stereo not drawn) | 52.1
16 | COc1cccc(OC)c1C(=O)OCC(=O)N(C)c1ccccc1 | 43 (≈ 131 µM)
17 | CCOc1ccc(-c2c(C)sc3nc[nH]c(=O)c23)cc1 | 24.6 (≈ 85.9 µM)
18 | CN1CCN(S(=O)(=O)c2ccccc2)CC1 | 34.6 (≈ 144 µM)
19 | Cc1cc(C)c(C(=O)CSc2nc(C)cc(=O)[nH]2)c(C)c1 | 14 (≈ 46.3 µM)
20 | CN1C(=O)C2(OCCCO2)c2cc(Cl)ccc21 | > 38.1
21 | O=C(NCc1ccco1)C(=O)NCC(c1ccco1)N1CCOCC1 (stereo not drawn) | 47.2 (≈ 136 µM)
22 | O=c1[nH]c(=S)n(C2CC2)c(O)c1C=Nc1ccc2c(c1)OCO2 | 1.3 (≈ 3.92 µM)
23 | CCc1ccc(NC2=CC(=O)C(=O)c3ccccc32)cc1 | 2.4 (≈ 8.65 µM)
24 | O=C1N(Cc2ccc(F)cc2)CCN1c1ccc(F)cc1 | 29.3 (≈ 102 µM)

Row | Structure (SMILES) | solubility kinetic [µg/mL]
25 | CC(OC(=O)c1cccs1)C(=O)NCCc1ccccc1 (stereo not drawn) | > 45.5
26 | O=C(CNC(=O)c1ccc(C(F)(F)F)cc1)NC1CC1 | > 42.9
27 | COc1ccc(OCCC(=O)OCC(=O)NCCC2=CCCCC2)cc1 | > 54.2
28 | CC(C)C(NC(=O)c1ccc(Cl)c([N+](=O)[O-])c1)C(=O)NCc1ccccn1 (stereo not drawn) | 40.6 (≈ 104 µM)
29 | COc1ccc(NC(=O)c2ccc(Cl)cc2)c[n+]1[O-] | > 41.8
30 | COc1ccc2cc(CCNC(=O)CCc3ccccc3)c(=O)[nH]c2c1 | 4.8 (≈ 13.7 µM)
31 | O=C(NCc1cccnc1)C1CC(c2ccccc2O)=NO1 (stereo not drawn) | > 44.6
32 | Cc1ccc(-n2cnc3sc(C)c(C)c3c2=O)cc1 | 0.8 (≈ 2.96 µM)
33 | CC(NC1=NCCS1)c1ccccc1 (stereo not drawn) | 30.4 (≈ 147 µM)
34 | CC(=O)c1sc2nsc(SCCN3CCCC3)c2c1N | 46.7 (≈ 143 µM)
35 | CCOC(=O)CN1CCS(=O)(=O)CC1 | > 33.2
36 | COc1cccc(C2(C#N)CCN(C)CC2)c1 | > 34.5
37 | CCN(CC(=O)NCc1cccs1)C(=O)Cc1ccc(C)c(C)c1 | > 51.7
38 | O=C(NC1CCC(O)CC1)c1cc(Cl)c2c(c1)OCCO2 (stereo not drawn) | 35.6 (≈ 114 µM)
39 | CSc1ncccc1C(=O)NCC(c1ccco1)N1CCCCC1 (stereo not drawn) | > 51.8
40 | O=C(NCCc1ccc(F)cc1)Nc1ccc([N+](=O)[O-])cc1 | 4.9 (≈ 16.2 µM)
41 | O=C(Nc1ccc(Cl)cc1)Nc1ccc(C(=O)N2CCOCC2)cc1 | 1.1 (≈ 3.06 µM)
42 | CC(NC(=O)Nc1ccccc1Cl)c1ccc2c(c1)OCO2 (stereo not drawn) | < 0.3
43 | NS(=O)(=O)c1ccc(CCNC(=O)COC(=O)c2ccc([N+](=O)[O-])o2)cc1 | > 59.6
44 | S=C(NCCc1ccccc1)Nc1cnc2ccccc2c1 | 3.6 (≈ 11.7 µM)
45 | N#Cc1c(NCc2ccccc2)ccnc1Cl | 20.2 (≈ 82.9 µM)
46 | Cn1cc(/C=C2\C(=O)NC(=O)N(c3ccccc3)C2=O)c2ccccc21 | 1.6 (≈ 4.63 µM)
47 | N#Cc1cc(S(=O)(=O)N2CCOCC2)ccc1N1CCOCC1 | > 50.6
48 | O=C(Nc1nccs1)c1ccc(Br)cc1 | 2.2 (≈ 7.77 µM)

Row | Structure (SMILES) | solubility kinetic [µg/mL]
49 | Cn1c(COc2ccccc2)nc2ccccc21 | 23.2 (≈ 97.4 µM)
50 | NS(=O)(=O)c1ccc(CCNC(=O)c2ccc(Cl)nc2)cc1 | > 51
51 | CCC1CCCCN1C(=O)CCS(=O)(=O)c1ccccc1 (stereo not drawn) | > 46.4
52 | Cc1ccc2nc(N3CCN(CCO)CC3)nc(-c3ccccc3)c2c1 | > 52.3
53 | O=C1CN(C(=O)CNCc2ccc(Cl)cc2)c2ccccc2N1 | 39.7 (≈ 120 µM)
54 | O=C(COC(=O)c1cc(=O)[nH]c2ccccc12)NC1CCCCC1 | 4.7 (≈ 14.3 µM)
55 | CN(C)c1ccc(/C=N/NC(=O)c2ccc3nc[nH]c3c2)cc1 | > 46.1
56 | Cc1cc(Cl)ccc1NC(=O)/C=N/O | > 31.9
57 | CC(=O)N[C@@H](Cc1ccc(OC(F)(F)F)cc1)C(=O)O | > 43.7
58 | O=C(NCC(c1cccs1)N1CCOCC1)c1cccnc1 (stereo not drawn) | 43.6 (≈ 137 µM)
59 | COc1ccc(S(=O)(=O)N2CCCCCC2)cc1C(=O)NCc1ccco1 | 46.5 (≈ 118 µM)
60 | CC(C)(C)NC(=O)N1CCN(c2nc3ccc(Cl)cc3s2)CC1 | 1.7 (≈ 4.82 µM)
61 | COc1ccc(/C=N/NC(=O)c2cc[n+]([O-])cc2)cc1 | > 40.7
62 | COc1ccccc1CNCC(=O)Nc1cc(S(=O)(=O)N2CCCCC2)ccc1C.O=C(O)C(=O)O | 34.3
63 | O=C(Nc1ccncc1)c1cc2ccccc2cc1O | 5.6 (≈ 21.2 µM)
64 | O=C(CCSCc1ccc(Cl)cc1)NCc1ccco1 | 39.5 (≈ 127 µM)
65 | NC(=O)COc1c(-c2ccc(Br)o2)oc2ccccc2c1=O | 11.1 (≈ 30.5 µM)
66 | Cc1cc(C(=O)Nc2cc(S(C)(=O)=O)ccc2Cl)c(C)o1 | 11.8 (≈ 36 µM)
67 | O=C(COC(=O)c1ccc(F)c(S(=O)(=O)N2CCOCC2)c1)NCc1ccc(Cl)cc1 | 7.1 (≈ 15.1 µM)
68 | CCc1ccccc1NC(=O)CCS(=O)(=O)c1ccc(C)cc1 | > 49.7
69 | O=C(Nc1cccc2cccnc12)c1ccccc1Cl | 0.3 (≈ 1.06 µM)
70 | O=S(=O)(Nc1ccon1)c1ccc(Br)cc1 | 32.2 (≈ 106 µM)
71 | CC1CCCCN1C(=O)CCS(=O)(=O)c1cccc2nonc12 (stereo not drawn) | 41.8 (≈ 124 µM)
72 | CCCN(CC(=O)Nc1ccccc1OC)C(=O)CC1CCCC1 | > 49.9

Row | Structure (SMILES) | solubility kinetic [µg/mL]
73 | Cc1ccc(S(=O)(=O)NCCCC(=O)N2CCC(C)CC2)cc1 | > 50.8
74 | CCOC(=O)Nc1cccc(OCC(=O)Nc2ccc3c(c2)CCC3)c1 | 5.2 (≈ 14.7 µM)
75 | Cc1ccccc1Cn1c(C)nc2ccc([N+](=O)[O-])cc2c1=O | 6.9 (≈ 22.3 µM)
76 | COc1ccccc1C(=O)Nc1ccc(NC(=O)C2CCCCC2)nc1 | 0.9 (≈ 2.55 µM)
77 | Cc1ccc(OCCNC(=O)CCc2nc3sc4c(c3c(=O)[nH]2)CCCC4)cc1 | 5.6 (≈ 13.6 µM)
78 | COc1ccc(NC(=S)NC(=NS(=O)(=O)c2ccc(Cl)cc2)c2ccccc2)cc1 | 47.3 (≈ 103 µM)
79 | Nc1cc(Cl)ccc1C(=O)OCC(=O)N1CCCC1 | 21.4 (≈ 75.7 µM)
80 | Cc1ccc(CNS(=O)(=O)c2ccc(C(F)(F)F)cc2)n1C | 30.6 (≈ 92.1 µM)
81 | CCOc1c(N2CC(C)OC(C)C2)c(=O)c1=O (stereo not drawn) | > 35.9
82 | N#Cc1c2c(c(NCCOCCO)n3c1nc1ccccc13)CCCC2 | 27 (≈ 77 µM)
83 | Cc1cc(Oc2ccc(N)cn2)ccc1Cl | 30.8 (≈ 131 µM)
84 | CCOc1cc(N2CCOCC2)c(OCC)cc1NC(=O)c1ccc(OC)c(S(=O)(=O)N2CCOCC2)c1 | 45.2 (≈ 82.2 µM)
85 | Cc1cc(OCC(=O)N2CCN(CC(=O)N3CCOCC3)CC2)c(C(C)C)cc1Cl | > 65.7
86 | Oc1cccc2ccc(N3CCOCC3)nc12 | > 34.5
87 | COc1ccc(NC(=O)Nc2cccc3ccccc23)c(OC)c1 | 0.5 (≈ 1.55 µM)
88 | COC(=O)c1ccc(Oc2nc(SC)nc(N(C)C)n2)cc1 | 2.1 (≈ 6.55 µM)
89 | CC1Cc2ccccc2N1NC(=O)c1ccc(Cl)c(S(N)(=O)=O)c1 (stereo not drawn) | > 54.9
90 | COC(=O)c1ccc(OCC(O)CN2CCOCC2)cc1 (stereo not drawn) | > 44.3
91 | CCC(Oc1ccccc1)C(=O)NC1CCCCCC1 (stereo not drawn) | 28.3 (≈ 103 µM)
92 | O=C(NC1CCS(=O)(=O)C1)c1ccc(Br)o1 (stereo not drawn) | 32.2 (≈ 104 µM)
93 | Cn1c(SCc2ccc([N+](=O)[O-])cc2)nnc1-c1ccncc1 | > 49.1
94 | OCC1(Cc2ccccc2)CCCN(Cc2c[nH]c3ccccc23)C1 (stereo not drawn) | 36 (≈ 108 µM)
95 | O=C(NC1CCCC1)c1cc(-c2ccc(F)cc2)on1 | 2.1 (≈ 7.66 µM)
96 | Cc1nc(Nc2ccccc2)c2oc3ccc(Cl)cc3c2n1 | < 0.2

Row | Structure (SMILES) | solubility kinetic [µg/mL]
97 | COc1ccc2cc(C(=O)O)n(CC(=O)c3ccccc3)c2c1 | > 46.4
98 | C=CCNC(=O)C12CCC(C)(C(=O)[C@H]1Br)C2(C)C (stereo partly drawn) | > 47.1
99 | Cc1ccnc(SCc2ccc([N+](=O)[O-])cc2)n1 | 29.7 (≈ 114 µM)
100 | O=C(COC(=O)c1cccs1)NC1CCCC1 | 36.5 (≈ 144 µM)
101 | CCCCOc1ccc(OCCCN2CCOCC2)cc1.Cl | > 49.5
102 | CN(C(=O)CSc1nc2ccccc2c(=O)n1C)C1CCS(=O)(=O)C1 (stereo not drawn) | > 57.2
103 | COc1ccc(-c2csc(NC(=O)CN3C(=O)C4CC=CCC4C3=O)n2)cc1OC (stereo not drawn) | 16 (≈ 37.4 µM)
104 | O=C(Nc1ccc(S(=O)(=O)Nc2ncccn2)cc1)C(F)(F)F | > 51.9
105 | Cc1ccccc1NC(=O)CSc1nc2scc(C)c2c(=O)[nH]1 | 1.4 (≈ 4.05 µM)
106 | CCNc1nc(NCC)nc(N(C#N)C(C)C)n1 | > 37.4
107 | Cc1cccc(C(CC(=O)NCc2ccco2)c2ccccc2)c1O (stereo not drawn) | > 50.3
108 | Cc1nc(Nc2cccc(F)c2)c2oc3ccccc3c2n1 | < 0.2
109 | COc1ccc2[nH]c(C(=O)N(C)Cc3ccccc3)c(C)c2c1 | 9.1 (≈ 29.5 µM)
110 | CCOC(=O)CNC(=O)Cn1cnc2c(oc3ccccc32)c1=O | > 49.4
111 | COc1cccc(/C=C/C(=O)NCC2CCCCC2)c1 | 16.4 (≈ 60 µM)
112 | Cc1ccccc1OCC(=O)NCC(c1ccco1)N1CCCCC1 (stereo not drawn) | 40.1 (≈ 117 µM)
113 | O=C(CCl)Nc1ccc(S(=O)(=O)Nc2nccs2)cc1 | 34 (≈ 102 µM)
114 | CN1CCN(CCC(=O)Nc2ccccc2)CC1 | > 37.1
115 | CC(OC(=O)c1cnccn1)C(=O)c1ccccc1 (stereo not drawn) | > 38.4
116 | Cc1ccc(S(=O)(=O)N2CCOCC2)cc1NCC(=O)Nc1ccc(OC(F)(F)F)cc1 | 3 (≈ 6.34 µM)
117 | CC(N=C1NS(=O)(=O)c2ccccc21)C(=O)NCc1ccc(F)cc1 (stereo not drawn) | > 54.2
118 | Cc1ccc(O)c(C(=O)c2cnc(/N=C(\N)N(C)C)nc2)c1 | 41.1 (≈ 137 µM)
